Test results as given in US20230233576A1, “ECLITASERTIB FOR USE IN TREATING CONDITIONS INVOLVING SYSTEMIC HYPERINFLAMMATORY RESPONSE” (priority 2020, published 2023).

Test system: adult participants hospitalized for severe COVID-19
Test: Phase 1b severe COVID-19 study: adverse events and deaths
Format: in vivo, human
Description: Safety evaluation was based on adverse events (Aes) including serious adverse events (SAEs) and adverse events of special interest (AESIs) (i.e., pregnancy, symptomatic overdose with IMP. Alanine aminotransferase [ALT] increase, and anemia), and treatment-emergent adverse events (TEAEs) leading to treatment discontinuation.
The primary focus of AE reporting was on treatment emergent adverse events (TEAEs). Treatment emergent adverse events were Aes that were not present at baseline or represented the exacerbation of a pre-existing condition during the on-treatment period (treatment-emergent period), defined as the time from the first administration of the IMP up to and including the day of last dose of study drug plus 5 days.
All adverse events were coded to a “preferred term (PT)”, “high-level term (HLT)”, “high-level group term (HLGT)”, and associated primary SOC using Medical Dictionary for Regulatory Activities (MedDRA) version 23.1.
The number and cumulative incidence rate of deaths [%] during the on-study period were computed by treatment group: number of deaths divided by the number of participants. Kaplan-Meier plot for time to death was presented by treatment group.

[1] = 600 mg (N = 47), Safety population
[2] = 600 mg (N = 47), Safety population, corresponds to worsening of COVID-19
[3] = 600 mg, Safety population (N = 47)
[4] = 600 mg, Study day 0, Safety population
[5] = 600 mg, Study day 13, Safety population
[6] = 600 mg, Study day 15, Safety population
[7] = 600 mg, Study day 27, Safety population
[8] = 600 mg, Study day 28, Safety population
[9] = 600 mg, Study day 29, Safety population
[10] = 600 mg, Study day 30, Safety population
[11] = 600 mg, Study day 31, Safety population
[12] = 600 mg, Study day 33, Safety population
[13] = 600 mg, Study day 42, Safety population
[14] = 600 mg, Study day 60, Safety population
[15] = post-treatment period, 600 mg (N = 47), safety population
[16] = pre-treatment emergent adverse events, 600 mg group (N = 47), safety population

## CN1C(=O)[C@@H](NC(=O)c2nnc(Cc3ccccc3)[nH]2)COc2cccnc21 [RIPK1 Inhibitor, (S)-5-benzyl-N-(5-methyl-4-oxo-2,3,4,5-tetrahydropyrido[3,2-b][1,4]oxazepin-3-yl)-4H-1,2,4-triazole-3-carboxamide]
[1]
  TEAE, PT Pulmonary embolism: percentage of participants: (2.1) %
  TEAE, PT Pyrexia: number of participants: 1
  TEAE, PT Pyrexia: percentage of participants: (2.1) %
  TEAE, PT Renal cyst: number of participants: 0
  TEAE, PT Renal impairment: number of participants: 0
  TEAE, PT Respiratory disorder: number of participants: 1
  TEAE, PT Respiratory disorder: percentage of participants: (2.1) %
  TEAE, PT Respiratory failure: number of participants: 0
  TEAE, PT Subcutaneous emphysema: number of participants: 0
  TEAE, PT Tachycardia paroxysmal: number of participants: 0
  TEAE, PT Tracheitis: number of participants: 0
  TEAE, PT Tracheobronchitis: number of participants: 0
  TEAE, PT Transaminases increased: number of participants: 0
  TEAE, PT Venous thrombosis limb: number of participants: 1
  TEAE, PT Venous thrombosis limb: percentage of participants: (2.1) %
  TEAE, PT Vessel puncture site phlebitis: number of participants: 1
  TEAE, PT Vessel puncture site phlebitis: percentage of participants: (2.1) %
  TEAE, PT Vomiting: number of participants: 0
  TEAE, SOC BLOOD AND LYMPHATIC SYSTEM DISORDERS: number of participants: 1
  TEAE, SOC BLOOD AND LYMPHATIC SYSTEM DISORDERS: percentage of participants: (2.1) %
  TEAE, SOC CARDIAC DISORDERS: number of participants: 0
  TEAE, SOC GASTROINTESTINAL DISORDERS: number of participants: 6
  TEAE, SOC GASTROINTESTINAL DISORDERS: percentage of participants: (12.8) %
  TEAE, SOC GENERAL DISORDERS AND ADMINISTRATION SITE CONDITIONS: number of participants: 6
  TEAE, SOC GENERAL DISORDERS AND ADMINISTRATION SITE CONDITIONS: percentage of participants: (12.8) %
  TEAE, SOC HEPATOBILIARY DISORDERS: number of participants: 0
  TEAE, SOC IMMUNE SYSTEM DISORDERS: number of participants: 1
  TEAE, SOC IMMUNE SYSTEM DISORDERS: percentage of participants: (2.1) %
  TEAE, SOC INFECTIONS AND INFESTATIONS: number of participants: 4
  TEAE, SOC INFECTIONS AND INFESTATIONS: percentage of participants: (8.5) %
  TEAE, SOC INJURY, POISONING AND PROCEDURAL COMPLICATIONS: number of participants: 1
  TEAE, SOC INJURY, POISONING AND PROCEDURAL COMPLICATIONS: percentage of participants: (2.1) %
  TEAE, SOC INVESTIGATIONS: number of participants: 6
  TEAE, SOC INVESTIGATIONS: percentage of participants: (12.8) %
  TEAE, SOC METABOLISM AND NUTRITION DISORDERS: number of participants: 3
  TEAE, SOC METABOLISM AND NUTRITION DISORDERS: percentage of participants: (6.4) %
  TEAE, SOC MUSCULOSKELETAL AND CONNECTIVE TISSUE DISORDERS: number of participants: 1
  TEAE, SOC MUSCULOSKELETAL AND CONNECTIVE TISSUE DISORDERS: percentage of participants: (2.1) %
  TEAE, SOC NERVOUS SYSTEM DISORDERS: number of participants: 0
  TEAE, SOC PSYCHIATRIC DISORDERS: number of participants: 1
  TEAE, SOC PSYCHIATRIC DISORDERS: percentage of participants: (2.1) %
  TEAE, SOC RENAL AND URINARY DISORDERS: number of participants: 0
  TEAE, SOC REPRODUCTIVE SYSTEM AND BREAST DISORDERS: number of participants: 0
  TEAE, SOC RESPIRATORY, THORACIC AND M[…]: number of participants: 4
  TEAE, SOC RESPIRATORY, THORACIC AND M[…]: percentage of participants: (8.5) %
  TEAE, SOC SKIN AND SUBCUTANEOUS TISSUE DISORDERS: number of participants: 0
  TEAE, SOC VASCULAR DISORDERS: number of participants: 3
  TEAE, SOC VASCULAR DISORDERS: percentage of participants: (6.4) %
[2]
  TEAE, PT Condition aggravated: number of participants: 4
  TEAE, PT Condition aggravated: percentage of participants: (8.5) %
[3]
  deaths up to Day 28: 4.3%
  number of AESIs: 6 AESIs
  number of TEAEs considered as IMP-related by the Investigator: 2 TEAEs
  number of TEAEs leading to treatment discontinuation: 5 TEAEs
  number of serious TEAEs: 8 serious TEAEs
  participants with AESI, PT Anaemia: 0 n
  participants with AESI, PT Transaminases increased: 0 n
  participants with AESI, SOC BLOOD AND LYMPHATIC SYSTEM DISORDERS: 0 n
  participants with post-treatment AE leading to death: 1 participant
600 mg, Safety population (N = 47), on Day 11 and Day 15
  deaths up to Day 28: 2 participants
[4]
  Cumulative incidence rate of deaths: 0
  Number of deaths: 0
[5]
  Cumulative incidence rate of deaths: 0.02
  Number of deaths: 1
[6]
  Cumulative incidence rate of deaths: 0.04
  Number of deaths: 1
[7]
  Cumulative incidence rate of deaths: 0.04
  Number of deaths: 0
[8]
  Cumulative incidence rate of deaths: 0.04
  Number of deaths: 0
[9]
  Cumulative incidence rate of deaths: 0.04
  Number of deaths: 0
[10]
  Cumulative incidence rate of deaths: 0.04
  Number of deaths: 0
[11]
  Cumulative incidence rate of deaths: 0.04
  Number of deaths: 0
[12]
  Cumulative incidence rate of deaths: 0.04
  Number of deaths: 0
[13]
  Cumulative incidence rate of deaths: 0.04
  Number of deaths: 0
[14]
  Cumulative incidence rate of deaths: 0.04
  Number of deaths: 0
600 mg, abnormal ALT and AST levels
  participants with post-treatment AESI of transaminase increase: One
600 mg, from an abnormal baseline
  participants with PCSAs of elevated glucose levels considered as a TEAE of hyperglycemia: One
Daily doses over 15 days, severe COVID-19, with standard of care
  overall safety and tolerability as compared to placebo: generally safe and well tolerated
[15]
  Participants with any post-treatment AE: 6 (12.8) n (%)
  Participants with any post-treatment AE leading to death: 1 (2.1) n (%)
  Participants with any post-treatment SAE: 1 (2.1) n (%)
  Participants with any post-treatment related to the compound: 0 n (%)
  Participants with severe post-treatment AE: 1 (2.1) n (%)
[16]
  Participants with any pre-treatment AE: 2 (4.3) n (%)
  Participants with any pre-treatment AE leading to death: 0 n (%)
  Participants with any pre-treatment SAE: 1 (2.1) n (%)
  Participants with severe pre-treatment AE: 1 (2.1) n (%)
